Data on two compounds can be found in ChEMBL document CHEMBL4622974, “Leveraging an Open Science Drug Discovery Model to Develop CNS-Penetrant ALK2 Inhibitors for the Treatment of Diffuse Intrinsic Pontine Glioma” (J Med Chem, 2020).

Data set [1] deals with T1, Activin receptor type-1 (Homo sapiens, UniProt Q04771).
T1 sequence (Q04771 whole entry): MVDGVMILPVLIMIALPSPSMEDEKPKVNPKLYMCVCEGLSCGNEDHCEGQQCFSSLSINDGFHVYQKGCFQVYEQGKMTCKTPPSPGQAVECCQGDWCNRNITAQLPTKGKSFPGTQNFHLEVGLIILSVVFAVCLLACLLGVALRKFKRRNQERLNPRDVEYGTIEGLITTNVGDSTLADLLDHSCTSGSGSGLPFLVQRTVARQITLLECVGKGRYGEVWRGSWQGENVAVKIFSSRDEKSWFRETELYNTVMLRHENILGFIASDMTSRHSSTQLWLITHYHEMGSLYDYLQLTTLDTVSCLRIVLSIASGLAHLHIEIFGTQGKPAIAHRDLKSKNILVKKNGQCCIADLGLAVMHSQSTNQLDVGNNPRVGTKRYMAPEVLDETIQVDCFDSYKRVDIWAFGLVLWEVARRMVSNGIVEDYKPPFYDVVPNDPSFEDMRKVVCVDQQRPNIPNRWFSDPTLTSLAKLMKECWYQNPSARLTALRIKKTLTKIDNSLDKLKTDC
The experiment in a line: Inhibition of human ALK2 using casein as substrate in presence of [gamma-33P]-ATP by radiometric hotspot assay.

The target in data set [2] is T1, Activin receptor type-1. The data set is described as follows: Competitive displacement of PBI-6908 from nanoluciferase-fused ALK2 (unknown origin) expressed in HEK293 cells incubated for 2 hrs by NanoBRET NanoGlo substrate based NanoBRET assay. Format: cell-based. On the technique in general: In BRET a luciferase serves as donor, and the signal depends on an acceptor being close.

The target in the next data set is T2, TGF-beta receptor type-1 (Homo sapiens, UniProt P36897).
T2 sequence (P36897 whole entry): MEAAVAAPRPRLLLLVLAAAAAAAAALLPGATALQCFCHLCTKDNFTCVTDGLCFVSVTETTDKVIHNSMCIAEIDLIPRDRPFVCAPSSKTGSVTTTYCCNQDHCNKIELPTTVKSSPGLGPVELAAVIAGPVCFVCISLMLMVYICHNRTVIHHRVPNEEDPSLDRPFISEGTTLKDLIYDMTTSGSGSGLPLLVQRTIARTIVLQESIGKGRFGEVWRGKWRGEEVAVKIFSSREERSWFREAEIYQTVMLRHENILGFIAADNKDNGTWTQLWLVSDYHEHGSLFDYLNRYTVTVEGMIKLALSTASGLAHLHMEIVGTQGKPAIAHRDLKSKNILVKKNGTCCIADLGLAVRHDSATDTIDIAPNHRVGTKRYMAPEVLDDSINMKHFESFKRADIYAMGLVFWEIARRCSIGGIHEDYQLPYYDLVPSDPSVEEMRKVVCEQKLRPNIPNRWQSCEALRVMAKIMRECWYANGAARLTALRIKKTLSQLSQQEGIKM
The experiment in a line: Inhibition of recombinant human ALK5 expressed in HEK293 cells transfected with CAGA-luciferase and Renilla luciferase reporter after 24 hrs by dual luciferase reporter assay. Format: cell-based. A general note: A reporter such as luciferase makes a cellular process visible.

The nature of data set [3]: Ratio of drug level in brain to plasma in CB17 SCID mouse at 10 mg/kg, po measured at 4 h. Format: ADME, organism-based. The note with it: brain and plasma, read-out: BPR.
Data set [4] is described as follows: Drug concentration in CB17 SCID mouse brain at 100 mg/kg after 0.25 to 24 hrs. Type of data set: ADME, organism-based. The note with it: in vivo, read-out: Drug uptake.
Data set [5] concerns the target Tyrosine-protein kinase Lyn (Homo sapiens) (UniProt P07948). The data set is described as follows: Inhibition of LYN (unknown origin).
Data set [6] deals with Bone morphogenetic protein receptor type-1A (Homo sapiens, UniProt P36894). The data set is described as follows: Inhibition of human ALK3 using casein as substrate in presence of [gamma-33P]-ATP by radiometric hotspot assay.
Sequence of Bone morphogenetic protein receptor type-1A (P36894 whole entry): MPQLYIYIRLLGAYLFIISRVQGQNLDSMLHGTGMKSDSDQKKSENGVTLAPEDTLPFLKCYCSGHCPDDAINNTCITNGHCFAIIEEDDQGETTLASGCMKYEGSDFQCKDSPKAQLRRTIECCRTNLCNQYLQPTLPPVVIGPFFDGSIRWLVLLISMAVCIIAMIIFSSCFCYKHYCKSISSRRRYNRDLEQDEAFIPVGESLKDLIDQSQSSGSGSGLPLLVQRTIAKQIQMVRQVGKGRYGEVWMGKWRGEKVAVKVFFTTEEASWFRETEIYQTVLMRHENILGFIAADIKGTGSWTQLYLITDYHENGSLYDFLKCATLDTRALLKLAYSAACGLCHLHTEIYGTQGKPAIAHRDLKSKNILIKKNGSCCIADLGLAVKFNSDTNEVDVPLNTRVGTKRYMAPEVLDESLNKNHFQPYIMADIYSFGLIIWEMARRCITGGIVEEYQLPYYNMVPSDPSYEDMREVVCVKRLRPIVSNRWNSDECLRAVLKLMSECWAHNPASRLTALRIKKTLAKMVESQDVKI
The target of data set [7] is Serine/threonine-protein kinase NLK (Homo sapiens, UniProt Q9UBE8). The data set is described as follows: Inhibition of NLK (unknown origin).
Sequence of Serine/threonine-protein kinase NLK (Q9UBE8 whole entry): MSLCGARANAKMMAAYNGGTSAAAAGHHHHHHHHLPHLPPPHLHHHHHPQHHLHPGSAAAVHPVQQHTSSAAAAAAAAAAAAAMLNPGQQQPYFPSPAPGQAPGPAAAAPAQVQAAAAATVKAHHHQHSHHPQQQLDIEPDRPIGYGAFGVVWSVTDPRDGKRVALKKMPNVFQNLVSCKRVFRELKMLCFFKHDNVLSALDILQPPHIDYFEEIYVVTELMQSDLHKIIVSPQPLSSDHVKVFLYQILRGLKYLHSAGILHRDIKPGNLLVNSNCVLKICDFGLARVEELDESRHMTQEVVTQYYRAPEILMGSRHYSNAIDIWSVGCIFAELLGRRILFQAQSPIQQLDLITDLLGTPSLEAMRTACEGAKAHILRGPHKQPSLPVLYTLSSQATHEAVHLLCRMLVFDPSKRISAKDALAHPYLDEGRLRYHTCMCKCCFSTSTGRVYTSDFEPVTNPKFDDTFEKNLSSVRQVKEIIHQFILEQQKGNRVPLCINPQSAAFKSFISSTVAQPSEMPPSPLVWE
The target of data set [8] is Cannabinoid receptor 1 (CB1) (Homo sapiens, UniProt P21554). The experiment in a line: Inhibition of recombinant human CB1 at 10 uM incubated for 60 mins by scintillation counting method.
Sequence of Cannabinoid receptor 1 (CB1) (P21554 whole entry): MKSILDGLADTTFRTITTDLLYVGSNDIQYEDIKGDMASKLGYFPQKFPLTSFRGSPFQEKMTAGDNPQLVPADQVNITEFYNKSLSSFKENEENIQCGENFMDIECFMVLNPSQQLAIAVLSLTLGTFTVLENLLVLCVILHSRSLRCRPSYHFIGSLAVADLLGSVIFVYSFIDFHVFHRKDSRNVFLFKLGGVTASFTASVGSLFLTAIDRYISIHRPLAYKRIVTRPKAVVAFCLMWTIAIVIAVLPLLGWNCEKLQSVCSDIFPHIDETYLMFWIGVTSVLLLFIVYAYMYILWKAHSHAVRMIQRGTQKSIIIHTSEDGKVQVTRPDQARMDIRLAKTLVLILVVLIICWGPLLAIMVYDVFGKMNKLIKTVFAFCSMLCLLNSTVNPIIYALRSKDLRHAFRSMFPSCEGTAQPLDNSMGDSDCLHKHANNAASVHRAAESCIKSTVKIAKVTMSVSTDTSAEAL
The test system of a further data set is sodium channel site 2. The experiment in a line: Inhibition of rat sodium channel site2 at 10 uM incubated for 60 mins by scintillation counting method.
The target of a further data set is hERG (KCNH2) (Homo sapiens, UniProt Q12809). The data set is described as follows: Displacement of [3H]dofetilide from recombinant human ERG at 10 uM after 60 mins by scintillation counting analysis. Conditions: probe [3H]dofetilide. In general terms: Loss of bound radioactivity is the signal in a displacement assay; it reports binding, not function.
The next data set has as its target Cytochrome P450 1A2 (Homo sapiens, UniProt P05177). The experiment in a line: Inhibition of CYP1A2 in human liver microsomes using phenacetin as substrate incubated for 20 mins in presence of NADPH by LC/MS/MS analysis. Format: ADME.
The next data set has as its target Cytochrome P450 2B6 (Homo sapiens, UniProt P20813). The experiment in a line: Inhibition of CYP2B6 in human liver microsomes using bupropion as substrate incubated for 20 mins in presence of NADPH by LC/MS/MS analysis. Format: ADME.
A further data set deals with Cytochrome P450 2C8 (Homo sapiens, UniProt P10632). The data set is described as follows: Inhibition of CYP2C8 in human liver microsomes using paclitaxel as substrate incubated for 20 mins in presence of NADPH by LC/MS/MS analysis. Format: ADME.
Sequence of Cytochrome P450 2C8 (P10632 whole entry): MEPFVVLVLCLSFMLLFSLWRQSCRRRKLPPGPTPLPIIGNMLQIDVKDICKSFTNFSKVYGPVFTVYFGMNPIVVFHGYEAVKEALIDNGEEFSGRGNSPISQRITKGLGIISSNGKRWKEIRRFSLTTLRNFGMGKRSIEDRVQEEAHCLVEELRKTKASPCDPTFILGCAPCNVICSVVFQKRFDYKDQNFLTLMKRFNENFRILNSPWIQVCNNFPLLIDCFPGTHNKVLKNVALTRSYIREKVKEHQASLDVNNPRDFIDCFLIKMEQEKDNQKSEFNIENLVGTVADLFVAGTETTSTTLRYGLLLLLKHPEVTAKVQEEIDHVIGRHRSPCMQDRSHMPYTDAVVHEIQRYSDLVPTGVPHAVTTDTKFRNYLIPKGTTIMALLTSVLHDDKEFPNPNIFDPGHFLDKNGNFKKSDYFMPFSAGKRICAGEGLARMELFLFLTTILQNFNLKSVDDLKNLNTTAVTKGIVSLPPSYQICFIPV
The target in a further data set is Cytochrome P450 2C19 (Homo sapiens, UniProt P33261). The data set is described as follows: Inhibition of CYP2C19 in human liver microsomes using mephenytoin as substrate incubated for 20 mins in presence of NADPH by LC/MS/MS analysis. Type of data set: ADME.
Another data set has as its target Cytochrome P450 2D6 (Homo sapiens, UniProt P10635). The data set is described as follows: Inhibition of CYP2D6 in human liver microsomes using dextromethorphan as substrate incubated for 20 mins in presence of NADPH by LC/MS/MS analysis. Type of data set: ADME.
For data set [9], the target named is T3, Cytochrome P450 3A4 (Homo sapiens, UniProt P08684). The data set is described as follows: Inhibition of CYP3A4 in human liver microsomes using midazolam as substrate incubated for 5 mins in presence of NADPH by LC/MS/MS analysis. Format: ADME.
T3 sequence (P08684 whole entry): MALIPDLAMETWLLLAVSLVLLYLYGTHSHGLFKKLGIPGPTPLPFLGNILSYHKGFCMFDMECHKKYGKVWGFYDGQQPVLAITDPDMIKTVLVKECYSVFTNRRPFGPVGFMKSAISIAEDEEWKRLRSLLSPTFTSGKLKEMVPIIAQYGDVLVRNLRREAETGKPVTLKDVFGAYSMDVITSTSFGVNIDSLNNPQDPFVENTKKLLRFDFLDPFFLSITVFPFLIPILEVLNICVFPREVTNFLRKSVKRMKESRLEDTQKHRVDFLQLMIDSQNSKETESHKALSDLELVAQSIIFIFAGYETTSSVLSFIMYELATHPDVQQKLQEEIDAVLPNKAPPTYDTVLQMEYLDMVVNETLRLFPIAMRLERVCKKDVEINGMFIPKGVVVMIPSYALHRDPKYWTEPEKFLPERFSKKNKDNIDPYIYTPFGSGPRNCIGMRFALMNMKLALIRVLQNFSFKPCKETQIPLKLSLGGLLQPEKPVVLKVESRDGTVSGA
In data set [10] the target is T3, Cytochrome P450 3A4. The experiment in a line: Inhibition of CYP3A4 in human liver microsomes using testosterone as substrate incubated for 10 mins in presence of NADPH by LC/MS/MS analysis. Format: ADME.
Data set [11] is described as follows: Protein binding in CD-1 mouse plasma at 1 mg/kg, iv measured at 2 hrs by LC/MS/MS method. Conditions: read-out: PPB. Type of data set: ADME, organism-based.
A short description of data set [12]: Toxicity in C57BL/6 mouse assessed as body weight loss at 50 mg/kg, po QD administered for 5 days measured after 24 hrs relative to control. Format: organism-based. Conditions: in vivo.
A short description of data set [13]: Toxicity in C57BL/6 mouse assessed as body weight loss at 100 mg/kg, po QD administered for 5 days measured after 24 hrs relative to control. Format: organism-based. The note with it: in vivo.
A short description of data set [14]: Toxicity in C57BL/6 mouse assessed as gross pathology at 25 mg/kg, po BID administered for 5 days measured after 24 hrs relative to control. Type of data set: organism-based. Conditions: in vivo.
Data set [15] can be described thus: Toxicity in C57BL/6 mouse assessed as gross pathology at 100 mg/kg, po QD administered for 5 days measured after 24 hrs relative to control. Format: organism-based. The note with it: in vivo.
Data set [16] can be described thus: Ratio of drug level in brain to plasma in CB17 SCID mouse at 25 mg/kg, po measured at 4 h. Type of data set: ADME, organism-based. The note with it: read-out: BPR.
A short description of data set [17]: Ratio of drug level in brain to plasma in CB17 SCID mouse at 50 mg/kg, po measured at 4 h. Type of data set: ADME, organism-based. The note with it: read-out: BPR.
Data set [18] in a line: Mutagenicity in Salmonella typhimurium by mini Ames test. Format: toxicity. The note with it: salmonella enterica subsp. enterica serovar typhimurium.

The structures appear in SMILES notation. Active and inactive are the calls of the source. No cut-off for these calls is given here.

Sequence of Cytochrome P450 2D6 (P10635 whole entry): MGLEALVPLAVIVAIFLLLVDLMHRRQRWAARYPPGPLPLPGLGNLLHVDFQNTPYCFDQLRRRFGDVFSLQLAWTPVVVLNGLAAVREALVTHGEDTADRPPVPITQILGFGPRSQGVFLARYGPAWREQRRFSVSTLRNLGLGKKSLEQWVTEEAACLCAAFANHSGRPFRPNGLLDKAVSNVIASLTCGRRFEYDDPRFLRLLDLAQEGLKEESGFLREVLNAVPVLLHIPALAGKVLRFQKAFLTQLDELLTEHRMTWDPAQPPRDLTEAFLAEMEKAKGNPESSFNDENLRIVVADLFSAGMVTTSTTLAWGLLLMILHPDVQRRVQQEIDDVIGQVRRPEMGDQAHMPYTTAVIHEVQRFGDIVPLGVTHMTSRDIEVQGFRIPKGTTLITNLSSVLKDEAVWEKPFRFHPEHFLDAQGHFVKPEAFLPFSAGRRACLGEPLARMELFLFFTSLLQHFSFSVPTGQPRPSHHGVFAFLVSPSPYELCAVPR
Sequence of Cytochrome P450 2B6 (P20813 whole entry): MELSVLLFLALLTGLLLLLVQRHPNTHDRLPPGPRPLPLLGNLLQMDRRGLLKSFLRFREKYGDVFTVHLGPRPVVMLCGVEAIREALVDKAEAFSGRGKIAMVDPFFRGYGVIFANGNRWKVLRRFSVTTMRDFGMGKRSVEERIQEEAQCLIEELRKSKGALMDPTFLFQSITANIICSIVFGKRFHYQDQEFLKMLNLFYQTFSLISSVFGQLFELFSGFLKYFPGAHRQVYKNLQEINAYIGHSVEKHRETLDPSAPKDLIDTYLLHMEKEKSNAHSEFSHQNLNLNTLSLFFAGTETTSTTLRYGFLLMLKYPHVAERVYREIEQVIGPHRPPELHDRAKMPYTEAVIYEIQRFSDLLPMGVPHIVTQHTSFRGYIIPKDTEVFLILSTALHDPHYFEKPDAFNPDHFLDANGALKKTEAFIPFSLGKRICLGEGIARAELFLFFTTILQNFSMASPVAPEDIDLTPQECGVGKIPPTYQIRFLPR
Sequence of Tyrosine-protein kinase Lyn (Homo sapiens) (P07948 2-512 limits assumed): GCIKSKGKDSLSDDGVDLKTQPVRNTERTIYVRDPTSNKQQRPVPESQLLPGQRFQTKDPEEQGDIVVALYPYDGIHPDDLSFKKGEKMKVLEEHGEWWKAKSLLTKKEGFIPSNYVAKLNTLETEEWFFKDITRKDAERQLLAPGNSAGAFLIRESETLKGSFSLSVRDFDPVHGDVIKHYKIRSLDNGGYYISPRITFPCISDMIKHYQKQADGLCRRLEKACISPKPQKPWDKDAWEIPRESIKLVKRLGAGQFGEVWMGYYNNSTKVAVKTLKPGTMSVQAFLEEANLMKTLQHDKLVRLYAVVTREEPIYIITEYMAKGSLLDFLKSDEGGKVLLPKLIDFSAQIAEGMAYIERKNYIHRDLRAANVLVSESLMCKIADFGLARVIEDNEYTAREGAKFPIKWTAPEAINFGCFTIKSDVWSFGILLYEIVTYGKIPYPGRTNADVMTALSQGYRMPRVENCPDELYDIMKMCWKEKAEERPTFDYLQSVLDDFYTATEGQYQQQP
Sequence of Cytochrome P450 1A2 (P05177 whole entry): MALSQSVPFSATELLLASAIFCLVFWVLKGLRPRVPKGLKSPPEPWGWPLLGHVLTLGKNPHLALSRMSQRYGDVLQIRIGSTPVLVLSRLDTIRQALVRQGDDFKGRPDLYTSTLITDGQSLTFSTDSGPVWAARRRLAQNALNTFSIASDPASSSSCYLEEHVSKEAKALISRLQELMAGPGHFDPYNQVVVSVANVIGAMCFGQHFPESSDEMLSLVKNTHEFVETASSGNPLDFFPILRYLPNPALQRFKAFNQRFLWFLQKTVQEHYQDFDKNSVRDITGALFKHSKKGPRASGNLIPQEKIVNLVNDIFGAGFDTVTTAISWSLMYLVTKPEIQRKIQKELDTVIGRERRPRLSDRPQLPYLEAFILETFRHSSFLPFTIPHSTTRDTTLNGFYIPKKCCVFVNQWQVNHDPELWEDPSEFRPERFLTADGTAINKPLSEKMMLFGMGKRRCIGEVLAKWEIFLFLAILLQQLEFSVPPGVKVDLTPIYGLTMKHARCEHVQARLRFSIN

On to `COc1cc(-c2cncc(-c3ccc(C4CCN(C)CC4)cc3)c2C)cc(OC)c1OC`, for which the IC50 at Activin receptor type-1 [1] was found to be 7 nM; at Activin receptor type-1 [2] it was 29 nM; at TGF-beta receptor type-1, 3.33 µM. For the same compound, the Kp at 4 h in data set [3] was found to be 0.82. The concentration in data set [4] came to 39 µM. Also, the inhibition result in [5] was “Active”.

For the compound `COc1cc(-c2cncc(-c3ccc(N4CCNCC4)cc3)c2C)cc(OC)c1OC`, the IC50 in data set [6] is 428 nM; in data set [7] it was 336 to 924 nM; at Cytochrome P450 1A2, > 30 µM; at Cytochrome P450 2B6, > 30 µM; at Cytochrome P450 2C8, > 30 µM; on Cytochrome P450 2C19, > 30 µM. Moreover, the IC50 on Cytochrome P450 2D6 is > 30 µM; on Cytochrome P450 3A4 [9], > 30 µM; at Cytochrome P450 3A4 [10], > 9 µM. Moreover, the figures for the inhibition at 1 h, 10 µM (in data set [8]; with sodium channel site 2; at hERG (KCNH2)) were 97%, 72% and 69%, respectively. Besides, the fraction unbound at 2 h in [11] stood at 0.09. Besides, the Activity entry in data set [12], in data set [13], in [14], in [15] and in [18] was “Non-Toxic” throughout. Besides, the values for the Kp at 4 h in data set [16] and in data set [17] were 1.5 and 1.8, respectively.

Broadly, the IC50 is the point on the concentration scale where inhibition reaches its midpoint. One may read the inhibition as the change of the read-out against control, counted positive when it falls.
